Assays:
[1] = xn = mol fraction of the nth substance listed; conditions: 298.15 K, 101.3 kPa, Liquid; for speed of sound: Sing-around technique in a fixed-path interferometer
[2] = refractive index (Na D-line) (dimensionless); xn = mol fraction of the nth substance listed; conditions: 298.15 K, 101.3 kPa, Liquid, Standard Abbe refractometry
[3] = refractive index (Na D-line) (dimensionless); conditions: 298.15 K; 101.33 kPa; Liquid; Standard Abbe refractometry
[4] = Liquid; for mass density / speed of sound: 298.15 K; for mass density: 101.33 kPa, Vibrating tube method; for speed of sound: Sing-around technique in a fixed-path interferometer

CCC(C)CO (stereo unspecified) [2-methyl-1-butanol] + CCCO
Conditions | mass density, [1] [kg/m3] | refractive index, [2] | speed of sound, [1] [m/s]
x2 = 0.051 | 814.37 | 1.40768 | 1252.4
x2 = 0.1 | 813.84 | 1.40677 | 1250.6
x2 = 0.151 | 813.28 | 1.40573 | 1248.7
x2 = 0.2 | 812.71 | 1.40478 | 1246.8
x2 = 0.251 | 812.09 | 1.4038 | 1244.7
x2 = 0.3 | 811.46 | 1.40272 | 1242.8
x2 = 0.351 | 810.8 | 1.40164 | 1240.5
x2 = 0.408 | 810.04 | 1.40039 | 1238
x2 = 0.45 | 809.44 | 1.39934 | 1236.1
x2 = 0.501 | 808.69 | 1.39815 | 1233.7
x2 = 0.55 | 807.94 | 1.39697 | 1231.3
x2 = 0.6 | 807.14 | 1.39556 | 1228.8
x2 = 0.65 | 806.3 | 1.39422 | 1226.2
x2 = 0.7 | 805.38 | 1.39279 | 1223.2
x2 = 0.75 | 804.5 | 1.39133 | 1220.7
x2 = 0.801 | 803.53 | 1.38982 | 1217.6
x2 = 0.85 | 802.6 | 1.38815 | 1214.8
x2 = 0.899 | 801.61 | 1.38658 | 1211.8
x2 = 0.949 | 800.64 | 1.38483 | 1208.7

CC(C)CCO [3-methylbutan-1-ol]
Conditions | mass density [kg/m3] | refractive index | speed of sound [m/s]
[3] | – | 1.40515 | –
[4] | 806.78 | – | 1238.8

Conditions | vapor or sublimation pressure [kPa]
[4], 404.27 K | 101.3

CC(C)CCO [3-methylbutan-1-ol] + CCCO
Conditions | mass density, [1] [kg/m3] | refractive index, [2] | speed of sound, [1] [m/s]
x2 = 0.05 | 806.4 | 1.40447 | 1234.4
x2 = 0.1 | 806.12 | 1.40366 | 1233.5
x2 = 0.15 | 805.83 | 1.40281 | 1232.3
x2 = 0.201 | 805.54 | 1.402 | 1231.1
x2 = 0.251 | 805.25 | 1.40115 | 1230
x2 = 0.3 | 804.97 | 1.4002 | 1228.8
x2 = 0.351 | 804.66 | 1.39919 | 1227.5
x2 = 0.4 | 804.37 | 1.3983 | 1226.2
x2 = 0.45 | 804.07 | 1.39734 | 1224.9
x2 = 0.5 | 803.75 | 1.39621 | 1223.4
x2 = 0.551 | 803.41 | 1.39507 | 1222
x2 = 0.6 | 803.08 | 1.39396 | 1220
x2 = 0.65 | 802.72 | 1.39278 | 1218.5
x2 = 0.7 | 802.34 | 1.39148 | 1217
x2 = 0.749 | 801.96 | 1.39035 | 1215.3
x2 = 0.799 | 801.55 | 1.38898 | 1213.6
x2 = 0.85 | 801.13 | 1.38757 | 1211.8
x2 = 0.9 | 800.69 | 1.3861 | 1210
x2 = 0.95 | 800.22 | 1.38458 | 1208.2

CCCO [propan-1-ol]
Conditions | mass density [kg/m3] | refractive index | speed of sound [m/s]
[3] | – | 1.38304 | –
[4] | 799.75 | – | 1205.7

Conditions | vapor or sublimation pressure [kPa]
[4], 370.29 K | 101.3

CCC(C)CO (stereo unspecified) [2-methyl-1-butanol]
Conditions | mass density [kg/m3] | refractive index | speed of sound [m/s]
[3] | – | 1.40872 | –
[4] | 814.87 | – | 1253.3

Conditions | vapor or sublimation pressure [kPa]
[4], 401.93 K | 101.3

— the NIST ThermoML archive (doi:10.1021/je0502142)
